Entries after “also recorded” stand apart in the source; their conditions may differ.
Tests used:
[1] = target: T1, IL1R1 molecule, soluble portion (Homo sapiens, UniProt P14778); assay: Trypsin sites blocked by small organic molecules on folded protein, mass spectrometry; assay type: biochemical
T1 construct: Linear representation of IL1R1 molecule, soluble portion; purchased Adipogen
T1 sequence (P14778 21-336): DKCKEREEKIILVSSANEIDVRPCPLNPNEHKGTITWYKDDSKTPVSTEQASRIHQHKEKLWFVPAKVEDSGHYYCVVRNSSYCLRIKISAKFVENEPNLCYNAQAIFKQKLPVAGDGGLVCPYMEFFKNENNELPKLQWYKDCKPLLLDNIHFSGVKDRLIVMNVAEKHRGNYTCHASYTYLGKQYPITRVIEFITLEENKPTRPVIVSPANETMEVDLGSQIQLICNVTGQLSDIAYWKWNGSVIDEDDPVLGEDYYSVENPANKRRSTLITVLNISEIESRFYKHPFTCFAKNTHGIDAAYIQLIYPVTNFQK
Text: The binding of the small organic molecules is localized to multiple sites restricted to the surface of the protein, and excluded from internal domains of protein-protein interactions […]. […] Thus these molecules can be employed to reveal a) the inner contact domains of a single folded protein or b) the contact domains of two or more interacting proteins.
To identify functional protein-protein interaction domains, three equimolar concentrations of Interleukin ligand, its cognate receptor, and its accessory proteins were selected as a proof of concept protein complex. Interleukin 1β (IL1β, Gibco, 65 pmoles in 50 μl PBS), Interleukin 1 receptor type I (IL1RI, Adipogen, 65 pmoles in 50 μl PBS), and Interleukin 1 receptor accessory protein (IL1RAcP, Novoprotein, 65 pmoles in 50 μl PBS), were allowed to interact for one hour at room temperature under rotation. […]
As a control to identify solvent accessible surface areas, protein solutions were prepared in parallel at the same concentrations without adding paint molecules. […] Equal quantities of unbound, Interleukin 1β, IL1RI, or IL1RAcP were mixed individually with each of the four molecular paints (3 proteins×4 paints, n=12) in a 1:10 molar ratio (protein:molecular paint). […]
The solutions were immediately passed through a size sieving Sephadex column (PD MiniTrap G 25, GE Healthcare) and the flow through was collected, denatured with urea (final concentration 2M), reduced with 1 M dithiothreitol (Sigma, 15 minutes at 37° C.), alkylated with 0.5 M iodoacetamide (Sigma, 15 minutes, room temperature in the dark), and digested with trypsin (Promega) at 1:10 w/w protease/protein ratio for 2 hours at 37° C. Tryptic peptides were purified by Zip-Tip (Millipore) following manufacturer's instructions, and analyzed by reversed-phase liquid chromatography nanospray tandem mass spectrometry (LC-MS/MS) using an LTQ-Orbitrap mass spectrometer (ThermoFisher).

[2] = system: SAPK/JNK signaling downstream from IL1RI; assay: SAPK/JNK signaling in IL1β stimulated NCI/ADR-RES cells, western blotting; assay type: cell-based; details: IL1β 10 ng/mL; Arg286 peptide 3.3, 16.7 and 33 μM; scrambled peptide 33 μM
Description: NCI/ADR-RES cells (Division of Cancer Treatment and Diagnosis, National Cancer Institute) were cultured in Dulbecco's modified Eagle's medium (Gibco) with 10% fetal bovine serum (ATCC), and 2 mM L-glutamine (ATCC) at 37° C., 5% CO2, in a humidified environment. NCI/ADR-RES cells (2×10^6 cells/well) were plated into 6-well tissue culture dishes. The following day, cells were pre-treated for 30 minutes with soluble IL1RAcP (1 μg/mL) lacking the trans-membrane domain, Arg286 peptide ([…], 3.3, 16.7 and 33 μM) (SEQ ID NO:6) and a scrambled peptide obtained by randomly shuffling Arg286 sequence ([…], 33 μM) (SEQ ID NO:7). Cells were washed with Dulbecco's modified Eagle's medium with 10% fetal bovine serum, and 2 mM glutamine and were stimulated with IL1β at 10 ng/ml for 30 min. Following incubation, cells were washed in ice-cold PBS, incubated with 100 μl of cell lysis buffer (10% Bond Breaker TCEP solution (Thermo Scientific), 45% T-PER tissue protein extraction reagent (Thermo Scientific) and 45% Novex Tris Glycine SDS sample buffer 2× (Invitrogen)), scraped, transferred to Eppendorf tubes, and heated at 100° C. for 10 minutes. Cell lysates were analyzed by western blotting.
Proteins were separated by 1-D gel electrophoresis in 4-20% Tris-Glycine gel in the presence of Tris-Glycine SDS running buffer with the following run conditions: 125 V, 90 minutes. […]

[3] = target: T2, IL1β-IL1RI-IL1RAcP complex (Homo sapiens, UniProt P01584+P14778); assay: Pull-down of IL1β within the receptor complex by His-tagged IL1RAcP (immunoprecipitation); assay type: binding; details: Arg286 peptide 6.7, 3.3, 1.7, 0.8 and 0.4 μM
T2 construct: purchased Gibco (IL1β); Adipogen (IL1RI); Novoprotein (IL1RAcP)
Description: IL1β (0.44 μg/mL), IL1RI (2 μg/mL) and 6×His-tagged IL1RAcP (0.72 μg/mL) were incubated with Arg286 peptide (6.7, 3.3, 1.7, 0.8 and 0.4 μM) in 50 μl of PBS for one hour at room temperature under rotation. In parallel, […], IL1RI and 6×His-tagged IL1RAcP were allowed to interact without Arg286 peptide as a positive control. IL1β, and 6×His-tagged IL1RAcP were allowed to interact in absence of IL1RI as a negative control. After 1 hour, protein mixtures were incubated with magnetic beads decorated with anti-6His mouse monoclonal antibody obtained as follows. BcMag Protein G Magnetic Beads (50 μl, Bioclone) were washed 3 times with washing buffer (57.7 mM Na2HPO4, 42.3 mM NaH2PO4, pH 7.0) and incubated with anti-6×His mouse monoclonal antibody (1 μg, Abcam) for 30 minutes under rotation. Magnetic beads were separated from the supernatant with neodymium magnets, washed three times with washing buffer (57.7 mM Na2HPO4, 42.3 mM NaH2PO4, pH 7.0) and incubated with protein mixtures for one hour at room temperature under rotation. Magnetic beads were separated from the supernatant with neodymium magnets and washed three times with washing buffer (57.7 mM Na2HPO4, 42.3 mM NaH2PO4, pH 7.0). Immuno-precipitated proteins were eluted with 20 μl of 4× sample buffer (10 minutes, 70° C.). Immuno-precipitated proteins were analyzed by western blotting. […]

T2 sequence (P01584 117-269, one chain of several): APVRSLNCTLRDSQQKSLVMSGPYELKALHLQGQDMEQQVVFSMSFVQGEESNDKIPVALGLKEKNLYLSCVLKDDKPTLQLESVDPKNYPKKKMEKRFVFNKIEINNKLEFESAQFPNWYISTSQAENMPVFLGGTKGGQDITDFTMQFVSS

Molecule | location of blocked trypsin sites on IL1R1 [1] | inhibition of SAPK/JNK signaling downstream from IL1RI [2] | inhibition of ligand pull-down / 3-protein complex formation [3]
O=S(=O)(O)c1cccc2cccc(Nc3ccccc3)c12 [ANSA, 8-Anilino-1-naphthalenesulfonic acid] | lay on the surface of the molecule | – | –
CCN1/C(=C/C=C/c2sc3ccccc3[n+]2CC)Sc2ccccc21 [DECI, 3,3′-Diethylthiacarbocyanine iodide] | lay on the surface of the folded molecule | – | –
CN=C1C=CC(=C(c2ccc(N(C)C)cc2)c2ccc(N(C)C)cc2)C=C1.Cl [MV, N-(4-{bis[4-(dimethylamino)phenyl]methylene}-2,5-cyclohexadien-1-ylidene)methanaminium chloride] | lay on the surface of the folded native molecule | – | –
HLRNISRISSITDTSETETEQ [scrambled peptide] | – | does not inhibit the signaling downstream from IL1RI | –
TINESISHSRTEDETRTQILS [Arg286 peptide] | – | completely blocked IL1 ligand-stimulated signaling, in a dose dependent manner; also recorded: inhibited SAPK/JNK signaling downstream from IL1RI as effectively as IL1RAcP | completely blocked IL1RAcP 3-way binding to the receptor ligand complex; also recorded: inhibition of ligand pull-down
